pIC50: −log10 of the molar value.
Experiments:
MNNGHOS tumor xenograft = assay: In vivo solid tumor disease model, MNNGHOS tumor xenograft; conditions: MNNGHOS xenograft in mice, dosed orally at 40 mg/kg in PEG 400/0.1 N HCl in saline (40:60)
Excerpt: In Vivo Solid Tumor Disease Model
This test measures the capacity of compounds to inhibit solid tumor growth.
Tumor xenografts are established in the flank of female athymic CDl mice (Charles River Inc.), by subcutaneous injection of 1X10^6 cells/mouse. Once established, tumors are then serially passaged s.c. in nude mice hosts. Tumor fragments from these host animals are used in subsequent compound evaluation experiments. For compound evaluation experiments female nude mice weighing approximately 20 g are implanted s.c. by surgical implantation with tumor fragments of 30 mg from donor tumors. When the tumors are approximately 100 mm^3 in size (˜7-10 days following implantation), the animals are randomized and separated into treatment and control groups. Each group contains 6-8 tumor-bearing mice, each of which is ear-tagged and followed individually throughout the experiment.
Mice are weighed and tumor measurements are taken by calipers three times weekly, starting on Day 1. These tumor measurements are converted to tumor volume by the well-known formula […]. The experiment is terminated when the control tumors reach a size of approximately 1500 mm^3. […] In addition to tumor volumes, body weight of animals is monitored twice weekly for up to 3 weeks. […]

DU145 = DU145 scattering inhibition; conditions: Homo sapiens, DU-145, read-out: Potency in cell-based assays DU145 scattering inhibition

**Q.** How did the effect on tumors (MNNGHOS tumor xenograft) turn out when COc1cc2nccc(Oc3ccc(NC(=O)N4CCN(c5ccccc5)C4=O)cc3F)c2cc1OC [Example 2, N-(4-(6,7-Dimethoxyquinolin-4-yloxy)-3-fluorophenyl)-2-oxo-3-phenylimidazolidine-1-carboxamide] was run?
**A.** The effect on tumors was “full regression of the tumors”.

**Q.** And the tumor growth inhibition (MNNGHOS tumor xenograft)?
**A.** The tumor growth inhibition was 112%.

**Q.** What about the pIC50 (DU145) of the same compound?
**A.** Its pIC50 is 6.40.

Reference: US20080004273A1, “Inhibitors of protein tyrosine kinase activity” (priority 2006, published 2008)
